Where two headings read alike, the source gives them in different places. Blank lines part the entries; values can stand above or below the compound they belong to.
Legend:
PRMT5 = PRMT5 (Homo sapiens, UniProt O14744); experiment: Inhibitory activity against enzymatic activity of PRMT5 (fluorescence polarization); assay type: biochemical; settings: PRMT5 25 nM, SAM 1 µM, polypeptide 1 µM, MTA 2 µM; 37 °C 2 hours
Protocol: The compounds were prepared into 10 mM stock solutions using DMSO, and then 9 concentration gradients (with an initial concentration of 10 µM followed by 1:5 dilution) were prepared using a buffer (50 mM Tris-HCl pH 8.5, 5 mM MgCl2, 4 mM DTT, 0.01% Triton X-100, 0.1 M NaCl, 0.5% DMSO), and each well received 5 µL of the diluted compound solutions. SAM, a polypeptide, and MTA were prepared using a buffer to final concentrations of 1 µM, 1 µM, and 2 µM, respectively, and were added to each well in a total of 5 µL. Meanwhile, an MTA-free group was set as a control. […] Subsequently, a mixture of 2.5 µL of stop buffer A, 2.5 µL of an 8× MT assay mixture (final concentration: 1×), and 24 µg/mL AMP2/GMP2 antibodies (final concentration: 3 µg/mL) was added. The resulting mixture was incubated at room temperature for 1.5 hours, and fluorescence polarization (FP) was measured (Ex 633, Em 647). Meanwhile, negative control wells without protein (Blank) and positive control wells without compound (DMSO) were set. Each experiment was independently repeated three times.
Data processing: The numerical values of each group were recorded for statistical analysis, and the inhibition rate was calculated according to the following formula: inhibition percentage of compound wells (% inh) = [1 - (ave Blank - Cpd well)/(ave Blank - ave DMSO control)] × 100. Note: ave represents the average value, and Cpd represents the numerical value of the wells containing the compound. A sigmoidal dose-inhibition rate curve was plotted and fitted using a nonlinear regression model in the GraphPad Prism 7.0 software, and the IC50 value was calculated. Table 1. Inhibitory activity of compounds against enzymatic activity of PRMT5

HCT-116 = experiment: CCK8 proliferation inhibition, HCT-116; assay type: cell-based; settings: Homo sapiens, 192 h, CCK8, 8 days after drug treatment
Protocol: (§1) The above normally growing cells were digested with a cell trypsinization solution, centrifuged, counted, and seeded into a 96-well plate at an appropriate cell density (2000 cells/well) at 100 µL/well. The next day after cell seeding, the compounds at different concentrations were added to the wells. Three replicate wells were set for each concentration point, and a corresponding DMSO negative control group was also set. CCK8 solution was added to each well 8 days after drug treatment. The plate was incubated at 37 °C for a period of time (OD450 of the vehicle group reached 1.0 or higher) before the absorbance at 450 nm was read using a microplate reader. The inhibition rates were calculated, and the EC50 values were determined by fitting using the GraphPad Prism 7.0 software. Table 2. EC50 values of compounds at cellular level

HCT-116-MTAP^-/- = experiment: CCK8 proliferation inhibition, HCT-116-MTAP^-/-; assay type: cell-based; settings: Homo sapiens, 192 h; HCT-116-MTAP^-/- (MTAP-deficient); CCK8, 8 days after drug treatment
Protocol: as §1

A549 = experiment: CCK8 proliferation inhibition, A549; assay type: cell-based; settings: Homo sapiens, 192 h, CCK8, 8 days after drug treatment
Protocol: as §1

SDMA [1] = experiment: SDMA Inhibition Assay in HCT-116 cells; assay type: cell-based; settings: Homo sapiens, HCT-116, 96 hours
Protocol: (§2) The next day, the cells were treated with the compounds at different concentrations (with an initial concentration of 10 µM, 5-fold dilution, 9 concentration gradients). After 96 hours, the culture medium was pipetted out and the cells were washed 2 times with 100 µL of PBS. The cells were then fixed with 4% paraformaldehyde and incubated at room temperature for 20 min. The fixative solution was discarded, and the cells were washed with PBS. 150 µL of specialized blocking solution (containing 1% Triton-100) was added to each well for blocking at room temperature for 2 hours, and the plate was washed with PBS to remove excess blocking solution. […] The cells were incubated at 4 °C overnight. The next day, the cells were separately washed 2 times with 1× PBST. […] The cells were incubated at room temperature for 2 hours. The cells were washed 2 times with 1× PBST and 1 time with PBS. Fluorescence signals at 700 nm and 800 nm were separately detected using a Li-COR Odyssey two-color near-infrared laser imager. The inhibition rates were calculated, and the EC50 values were determined by fitting using the GraphPad Prism 7.0 software. Table 3. Inhibition of SDMA by test compounds

SDMA [2] = experiment: SDMA Inhibition Assay in HCT-116-MTAP^-/- cells; assay type: cell-based; settings: Homo sapiens, 96 hours
Protocol: as §2

SDMA [3] = experiment: SDMA Inhibition Assay in A549 cells; assay type: cell-based; settings: Homo sapiens, A549, 96 hours
Protocol: as §2

[4] = Pharmacokinetic assay in mice; assay type: in vivo, Balb/c mice; settings: mouse; for MRT inf: read-out: MRT(0-∞)
Protocol: Eighteen male Balb/c mice aged 6 to 8 weeks were randomly divided into 2 groups (IV group and PO group). The corresponding compounds were administered to the animals in the IV group by tail intravenous injection at 2 mg/kg, and the corresponding compounds were administered to the animals in the PO group by oral gavage at 10 mg/kg or 100 mg/kg. The animals in the IV group were allowed free access to food and water, and the animals in the PO group were fasted overnight before administration and were fed 4 h after administration. Throughout the experiment, the animals were allowed free access to water. Plasma samples were separately collected at 0.083 h (only group IV), 0.25 h, 0.5 h, 1 h, 2 h, 4 h, 8 h, and 24 h after administration. About 100 µL of blood was collected from the orbit of the animal, placed into a 1.5 mL anticoagulation centrifuge tube, and centrifuged at 8000 rpm and 4 °C for 10 min. The upper plasma sample was transferred to an EP tube. The plasma samples were stored in a refrigerator at -80 °C until sample analysis. Pharmacokinetic parameters of the drug were calculated based on the drug concentration-time data, including the peak concentration Cmax, peak time Tmax, clearance rate CL, steady state apparent volume of distribution Vss, area under drug-time curve AUC, elimination half-life t1/2, bioavailability, and the like. Data below the 80% lower limit of quantification were excluded from the calculation of pharmacokinetic parameters.

HCT-116-MTAP^-/- cells = experiment: Pharmacodynamic study, HCT-116-MTAP^-/- subcutaneous xenograft; assay type: in vivo, mouse; settings: HCT-116-MTAP^-/- xenograft, 60 mpk PO QD
Protocol: (§3) Human colon cancer HCT-116-MTAP^-1- cells were cultured in monolayer in vitro using the McCoy 5A culture medium (HyClone) containing 10% fetal bovine serum (BI) and 1% penicillin and streptomycin (Beyotime) in an incubator at 37 °C with 5% CO2. The cells were digested with trypsin 2 to 3 times weekly for passaging. When the saturation degree of the cells was 80% to 90%, the cells were collected, counted, and inoculated. 5 × 10^6 (0.1 mL) HCT-116-MTAP^-/- cells were subcutaneously inoculated on the right back of each mouse. On about day 15 after inoculation of the cells, the mean tumor volume reached 172 mm^3. The mice were randomly grouped for administration (the animals were divided into an administration group and a control group, with 6 animals in each group). The day of grouping was designated as d0, and intragastric administration was started on d1. The administration was performed once daily at an administration volume of 10 mL/kg. Vehicle control was administered to the control group. The tumor volume was measured 2 to 3 times weekly, and meanwhile, the mice were weighed and the data were recorded; daily observations were made to record the body surface signs of the mice. After the experiment was completed, the tumors were collected, weighed, and photographed for recording.
(§4) Calculation formula for tumor volume: Tumor volume (mm^3) = 1/2 × (a×b^2) [formula] (note: a represents long diameter and b represents short diameter) [formula]

NCI-H838 cells = experiment: Pharmacodynamic study, NCI-H838 subcutaneous xenograft; assay type: in vivo, mouse
Protocol: as §3, with “non-small cell lung” for “colon”, “NCI-H838” for “HCT-116-MTAP^-1-”, “NCI-H838” for “HCT-116-MTAP^-/-”, “29” for “15”, “156” for “172”
as §4

CYP450 3A4 = biological target: T1, CYP450 3A4 (Homo sapiens, UniProt P08684); experiment: Inhibition of human liver microsome CYP450 enzyme 3A4; assay type: in vitro ADME; settings: human, microsomes, pH 7.4
T1 construct: from tissue; host or cells: human liver microsomes
Protocol: 100 mM K-Buffer: 9.5 mL of stock solution A was mixed with 40.5 mL of stock solution B, the total volume was adjusted to 500 mL with ultrapure water, and the buffer was titrated to pH 7.4 with KOH or H3PO4. • Starting material A (1 M potassium dihydrogen phosphate): 136.5 g of potassium dihydrogen phosphate in 1 L of water; • Stock solution B ([…]): 174.2 g of potassium dihydrogen phosphate in 1 L of water.
The test substance powder was prepared into a stock solution at a certain concentration with DMSO or another organic solvent, which was then further diluted with a suitable organic solvent.
The liver microsomal in vitro incubation system for the CYP450 enzyme metabolism phenotype study was a biochemical reaction of the prepared liver microsomes supplemented with a redox coenzyme and an enzyme-specific selective inhibitor under simulated physiological temperature and physiological environment conditions.
The concentration of the parent drug or a metabolite thereof in the incubation solution was determined by LC-MS/MS. and the IC50 value was calculated.

[5] = male, Balb/c, plasma, 2 mg/kg, IV 2mpk
[6] = male, Balb/c, plasma, 10 mg/kg, PO 10mpk

PRMT5, sequence (O14744 whole entry): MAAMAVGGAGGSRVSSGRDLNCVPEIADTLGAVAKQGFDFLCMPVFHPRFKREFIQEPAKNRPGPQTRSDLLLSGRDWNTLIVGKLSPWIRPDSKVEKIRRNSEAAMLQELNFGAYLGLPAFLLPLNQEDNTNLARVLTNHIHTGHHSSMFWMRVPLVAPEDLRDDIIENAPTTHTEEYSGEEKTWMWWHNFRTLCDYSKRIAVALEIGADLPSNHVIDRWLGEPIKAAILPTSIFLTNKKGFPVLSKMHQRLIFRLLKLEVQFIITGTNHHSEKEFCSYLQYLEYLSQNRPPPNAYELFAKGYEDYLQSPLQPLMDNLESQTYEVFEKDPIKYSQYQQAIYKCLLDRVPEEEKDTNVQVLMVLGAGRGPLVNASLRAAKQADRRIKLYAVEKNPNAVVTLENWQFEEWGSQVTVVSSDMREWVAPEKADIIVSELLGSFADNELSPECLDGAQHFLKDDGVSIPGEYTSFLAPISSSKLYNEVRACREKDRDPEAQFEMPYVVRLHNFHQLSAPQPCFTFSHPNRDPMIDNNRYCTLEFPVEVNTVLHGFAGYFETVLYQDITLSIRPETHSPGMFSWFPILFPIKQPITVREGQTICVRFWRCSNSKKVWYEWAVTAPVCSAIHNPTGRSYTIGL
PRMT5, sequence (Q9BQA1 whole entry partner): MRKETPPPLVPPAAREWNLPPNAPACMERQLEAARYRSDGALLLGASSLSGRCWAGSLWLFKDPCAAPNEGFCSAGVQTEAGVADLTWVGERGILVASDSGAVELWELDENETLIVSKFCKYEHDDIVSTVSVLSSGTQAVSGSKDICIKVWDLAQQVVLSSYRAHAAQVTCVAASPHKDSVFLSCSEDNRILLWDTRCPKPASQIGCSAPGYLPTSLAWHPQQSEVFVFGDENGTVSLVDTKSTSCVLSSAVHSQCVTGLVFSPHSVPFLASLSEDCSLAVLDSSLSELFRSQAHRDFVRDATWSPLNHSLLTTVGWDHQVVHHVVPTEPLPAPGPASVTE
T1 sequence (P08684 whole entry): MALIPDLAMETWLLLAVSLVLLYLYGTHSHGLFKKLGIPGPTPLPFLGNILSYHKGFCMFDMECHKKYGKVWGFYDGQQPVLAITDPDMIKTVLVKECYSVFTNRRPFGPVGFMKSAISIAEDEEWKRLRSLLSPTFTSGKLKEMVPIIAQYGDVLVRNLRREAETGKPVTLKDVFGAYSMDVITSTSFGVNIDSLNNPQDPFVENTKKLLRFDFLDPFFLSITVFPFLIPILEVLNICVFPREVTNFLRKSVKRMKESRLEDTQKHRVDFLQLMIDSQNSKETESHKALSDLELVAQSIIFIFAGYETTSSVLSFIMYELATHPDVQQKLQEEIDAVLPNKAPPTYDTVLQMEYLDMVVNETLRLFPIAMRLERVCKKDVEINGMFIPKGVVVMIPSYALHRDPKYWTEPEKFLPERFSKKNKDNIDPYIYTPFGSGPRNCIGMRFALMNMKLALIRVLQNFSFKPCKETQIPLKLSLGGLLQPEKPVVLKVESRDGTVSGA

IC50 (PRMT5): 48.5 nM
EC50 (HCT-116): 3230 nM
EC50 (HCT-116-MTAP^-/-): 4.2 nM
EC50 (A549): 41.8 nM
EC50 (SDMA [1]): 220 nM
EC50 (SDMA [2]): 1.5 nM
EC50 (SDMA [3]): 1.4 nM
AUC(0-inf) [4, 5]: 5.69 µM·h
AUC(0-t) [4, 5]: 5.45 µM·h
C0 [4, 5]: 3.52 µM
MRT inf [4, 5]: 2.3 h
Vd ([4]; male, Balb/c, plasma, 2 mg/kg, IV 2mpk, read-out: Vz): 2 L/kg
AUC(0-inf) [4, 6]: 18.4 µM·h
AUC(0-t) [4, 6]: 18.1 µM·h
Cmax [4, 6]: 3.24 µM
Tmax [4, 6]: 1 h
MRT inf [4, 6]: 5.5 h
CLz ([4]; IV 2mpk): 13 mL/min/kg
R_AUC(t/∞) ([4]; IV 2mpk): 95.8%
t1/2z ([4]; IV 2mpk): 1.8 h
R_AUC(t/∞) ([4]; PO 10mpk): 98.3%
t1/2z ([4]; PO 10mpk): 4.1 h
F ([4]; PO 10mpk vs IV 2mpk): 64.7%
SMILES: CN(Cc1ccc2c(c1)OC(F)(F)O2)C(=O)c1cc2c(cc1F)nc(N)c1cnn(C)c12 [Example I-1]
Day 28 TGI (HCT-116-MTAP^-/- cells): 85%

SMILES: Cn1ncc2c(N)nc3cnc(C(=O)N(Cc4ccc5c(c4)OC(F)(F)O5)C4CC4)cc3c21 [Example I-37]
EC50 (HCT-116): 545 nM
EC50 (HCT-116-MTAP^-/-): 10.1 nM
EC50 (A549): 72.7 nM
EC50 (SDMA [1]): 205 nM
EC50 (SDMA [2]): 1.9 nM
EC50 (SDMA [3]): 2.7 nM
Day 31 TGI (NCI-H838 cells; 10 mpk PO QD): 58%
Day 31 TGI (NCI-H838 cells; 30 mpk PO QD): 71%
Day 31 TGI (NCI-H838 cells; 100 mpk PO QD): 104%
IC50 (CYP450 3A4): > 10000 nM

From EP4700025A1, “AMIDE COMPOUND, PHARMACEUTICAL COMPOSITION COMPRISING SAME, AND USE THEREOF” (Suzhou Genhouse Bio Co., Ltd., priority 2023, dated 2024)
